This note sets out measurements from ChEMBL document CHEMBL2163273, “Orally active adenosine A(1) receptor agonists with antinociceptive effects in mice” (J Med Chem, 2012).

pEC50, pKi: −log10 of the molar value. Active and inactive are the calls of the source. The rule behind the calls is not given here. Where only a bound is given, the exact number is not on record here.

Broadly, the pEC50 is the EC50 on a negative log10 scale, so that one unit is a factor of ten. One may read the pKi as the Ki on a negative log10 scale, so that one unit is a factor of ten. A high value points to a low Ki. The term inhibition denotes the relative decrease from the control value, in per cent.

The target of data set [1] is T1, Adenosine receptor A1 (Homo sapiens, UniProt P30542).
T1 sequence (P30542 whole entry): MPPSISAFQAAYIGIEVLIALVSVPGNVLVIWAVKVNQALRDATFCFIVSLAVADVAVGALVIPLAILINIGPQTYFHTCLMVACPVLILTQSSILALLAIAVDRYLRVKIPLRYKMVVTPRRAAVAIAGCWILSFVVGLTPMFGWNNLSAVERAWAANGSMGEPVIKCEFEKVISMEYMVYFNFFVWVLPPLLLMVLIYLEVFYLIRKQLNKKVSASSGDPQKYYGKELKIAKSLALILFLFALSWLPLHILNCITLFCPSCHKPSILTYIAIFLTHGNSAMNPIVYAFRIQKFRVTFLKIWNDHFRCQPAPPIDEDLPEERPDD
The data set can be described thus: Agonist activity at human A1AR expressed in HEK293T/17 cells assessed as inhibition of isoproterenol-induced cAMP accumulation incubated for 10 mins by luciferase reporter assay. The class given is functional, cell-based, HEK-293T.

Data set [2] addresses T1, Adenosine receptor A1. Nature of the data set: Agonist activity at human A1AR expressed in HEK293T/17 cells assessed as inhibition of forskolin-induced cAMP accumulation incubated for 10 mins by luciferase reporter assay. Format: functional, cell-based, HEK-293T. A general note: Cyclic AMP is a second messenger, typically raised through Gs and lowered through Gi signalling.

Data set [3] addresses T1, Adenosine receptor A1. Nature of the data set: Agonist activity at human A1AR assessed as induction of Ca2+ ion mobilization by orthogonal functional assay.
A further data set concerns the target Adenosine receptor A2a (Homo sapiens, UniProt P29274). Nature of the data set: Displacement of [3H]2-chloro-N6-cyclopentyladenosine from human A2AR.
Data set [4] addresses T2, Adenosine receptor A2b (Homo sapiens) (UniProt P29275).
T2 sequence (whole entry): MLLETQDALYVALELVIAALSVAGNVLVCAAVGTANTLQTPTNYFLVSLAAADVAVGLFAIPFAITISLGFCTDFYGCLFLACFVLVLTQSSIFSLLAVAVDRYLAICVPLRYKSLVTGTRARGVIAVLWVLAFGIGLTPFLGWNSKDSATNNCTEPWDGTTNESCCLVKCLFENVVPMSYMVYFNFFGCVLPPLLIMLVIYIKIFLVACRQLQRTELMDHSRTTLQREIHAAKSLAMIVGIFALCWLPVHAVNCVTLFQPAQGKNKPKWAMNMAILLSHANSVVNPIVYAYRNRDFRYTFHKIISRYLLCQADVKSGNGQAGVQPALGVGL
The data set can be described thus: Displacement of [3H]2-chloro-N6-cyclopentyladenosine from human A2BR at 10 uM. Background: Loss of bound radioactivity is the signal in a displacement assay; it reports binding, not function.

The species entered for data set [5] is Homo sapiens. Nature of the data set: Selectivity ratio of Ki for human A3AR to Ki for human A1AR.
The target in data set [6] is T1, Adenosine receptor A1. Nature of the data set: Displacement of [3H]2-chloro-N6-cyclopentyladenosine from human A1AR.
Another data set deals with T3, Adenosine receptor A3 (Homo sapiens, UniProt P0DMS8).
T3 sequence (P0DMS8 whole entry): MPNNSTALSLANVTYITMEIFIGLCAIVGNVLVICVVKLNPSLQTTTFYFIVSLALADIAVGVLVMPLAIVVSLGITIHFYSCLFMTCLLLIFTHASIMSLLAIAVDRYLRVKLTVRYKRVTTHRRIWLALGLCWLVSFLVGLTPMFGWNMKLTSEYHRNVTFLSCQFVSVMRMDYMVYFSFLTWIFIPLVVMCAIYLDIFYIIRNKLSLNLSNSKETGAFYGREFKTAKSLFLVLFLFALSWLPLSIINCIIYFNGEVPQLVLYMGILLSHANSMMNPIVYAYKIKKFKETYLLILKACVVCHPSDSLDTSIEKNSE
Nature of the data set: Displacement of [3H]2-chloro-N6-cyclopentyladenosine from human A3AR.

Data set [7] concerns Mus musculus. Nature of the data set: Cardiovascular toxicity in C57BL/6 mouse assessed as change in body temperature at 5000 nmol/kg, po. Format: organism-based. The conditions noted are these: in vivo.
Data set [8] relates to Mus musculus. Nature of the data set: Cardiovascular toxicity in C57BL/6 mouse assessed as change in heart rate at 5000 nmol/kg, po. Format: organism-based. Conditions: in vivo.
For data set [9], the system named is Mus musculus. The data set can be described thus: Antinociceptive effect in orally dosed C57BL/6 mouse assessed as inhibition of noxious thermal sensitivity by measuring paw withdrawal latency. The class given is functional, organism-based.
Data set [10] concerns Mus musculus. Nature of the data set: Cardiovascular toxicity in A1AR knock out C57BL/6 mouse assessed as change in heart rate at 5000 nmol/kg, po. Format: organism-based. The conditions noted are these: in vivo.
The subject of data set [11] is Mus musculus. The data set can be described thus: Cardiovascular toxicity in A1AR knock out C57BL/6 mouse assessed as change in body temperature at 5000 nmol/kg, po. The class given is organism-based. Conditions: in vivo.
For data set [12], the system named is Mus musculus. The data set can be described thus: Antinociceptive effect in intravenously dosed C57BL/6 mouse assessed as inhibition of noxious thermal sensitivity by measuring paw withdrawal latency. Format: functional, organism-based.
Data set [13] is filed under the species Homo sapiens. Nature of the data set: Selectivity ratio of Ki for human A2AR to Ki for human A1AR.
The target in data set [14] is T2, Adenosine receptor A2b (Homo sapiens). Nature of the data set: Displacement of [3H]2-chloro-N6-cyclopentyladenosine from human A2BR at 50 uM.
The test system of data set [15] is Mus musculus. The data set can be described thus: Antinociceptive effect in A1AR knock out C57BL/6 mouse assessed as inhibition of noxious thermal sensitivity by measuring paw withdrawal latency at 5 nmol/kg, it. The class given is functional, organism-based.
Data set [16] relates to Mus musculus. Nature of the data set: Antinociceptive effect in intrathecally dosed C57BL/6 mouse assessed as inhibition of noxious thermal sensitivity by measuring paw withdrawal latency. Format: functional, organism-based.

Chain of Adenosine receptor A2a (P29274 whole entry): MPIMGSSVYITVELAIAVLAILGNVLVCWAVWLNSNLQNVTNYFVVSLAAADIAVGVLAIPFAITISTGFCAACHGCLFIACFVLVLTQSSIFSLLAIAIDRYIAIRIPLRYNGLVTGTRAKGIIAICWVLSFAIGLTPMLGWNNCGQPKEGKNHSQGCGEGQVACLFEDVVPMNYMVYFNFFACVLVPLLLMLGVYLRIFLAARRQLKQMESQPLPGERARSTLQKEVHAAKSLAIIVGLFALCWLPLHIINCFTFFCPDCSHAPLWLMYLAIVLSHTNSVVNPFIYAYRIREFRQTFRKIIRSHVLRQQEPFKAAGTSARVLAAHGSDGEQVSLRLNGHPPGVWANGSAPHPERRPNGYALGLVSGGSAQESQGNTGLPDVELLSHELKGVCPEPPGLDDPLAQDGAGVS

As for `COP(=O)(OC)OC[C@H]1O[C@@H](n2cnc3c(NC4CCCC4)ncnc32)[C@H](O)[C@@H]1O`, the pEC50 on Adenosine receptor A1 [1] is 5.36.

For `CCOP(=O)(OCC)OC[C@H]1O[C@@H](n2cnc3c(NC4CCCC4)nc(Cl)nc32)[C@H](O)[C@@H]1O`, the pEC50 at Adenosine receptor A1 [1] was under 5.00.

On to `O=P(OCCc1ccccc1)(OCCc1ccccc1)OC[C@H]1O[C@@H](n2cnc3c(NC4CCCC4)nc(Cl)nc32)[C@H](O)[C@@H]1O`, for which, at Adenosine receptor A1 [1], the pEC50 was 5.21.

For the molecule `Nc1ncnc2c1ncn2[C@@H]1O[C@H](CO)[C@@H](O)[C@H]1OP(=O)(O)O`, the pEC50 on Adenosine receptor A1 [1] is 6.31.

For the molecule `COP(=O)(OC)O[C@@H]1CCC[C@H]1Nc1nc(Cl)nc2c1ncn2[C@@H]1O[C@H](CO)[C@@H](O)[C@H]1O`, on Adenosine receptor A1 [2], the pEC50 was under 5.00.

Consider `Nc1ncnc2c1ncn2[C@@H]1O[C@H](CO)[C@@H](OP(=O)(O)O)[C@H]1O`, for which the pEC50 on Adenosine receptor A1 [1] is 6.36.

Consider `O=P(O)(O)OC[C@H]1O[C@@H](n2cnc3c(NC4CCCC4)nc(Cl)nc32)[C@H](O)[C@@H]1O`, for which the pEC50 on Adenosine receptor A1 [3] is 7.68; on Adenosine receptor A1 [1], 7.14. The pKi at Adenosine receptor A2a is 5.80; on Adenosine receptor A1 [6], 7.60; on Adenosine receptor A3, 5.89. Besides, the inhibition in data set [4] worked out at 0%. Besides, the Ratio Ki in the data set filed under Homo sapiens [5] amounted to 52.

As to `OC[C@H]1O[C@@H](n2cnc3c(N[C@H]4CCC[C@@H]4O)ncnc32)[C@H](O)[C@@H]1O` [GR-79236], the pEC50 on Adenosine receptor A1 [2] is 8.23.

`COP(=O)(OC)OCC(Cc1ccccc1)Nc1nc(Cl)nc2c1ncn2[C@@H]1O[C@H](CO)[C@@H](O)[C@H]1O` (mixture of isomers): the pEC50 at Adenosine receptor A1 [1] is 5.27.

For the molecule `Nc1ncnc2c1ncn2[C@@H]1O[C@H](COP(=O)(O)O)[C@@H](O)[C@H]1O` [ADENOSINE PHOSPHATE], at Adenosine receptor A1 [1], the pEC50 is 6.30.

In the case of `OC[C@H]1O[C@@H](n2cnc3c(NC4CCCC4)ncnc32)[C@H](O)[C@@H]1O` [N6-CYCLOPENTYLADENOSINE], the Activity result in the data set on Mus musculus [7] is “Toxic”; with Mus musculus [8], “Toxic”; in the data set on Mus musculus [9] it was “Dose-dependent effect”; with Mus musculus [10], “Non-toxic”; with Mus musculus [11], “Non-toxic”.

In the case of `OCC(Cc1ccccc1)Nc1nc(Cl)nc2c1ncn2[C@@H]1O[C@H](CO)[C@@H](O)[C@H]1O` (mixture of isomers), at Adenosine receptor A1 [1], the pEC50 is 6.26.

As to `O=P(O)(O)O[C@@H]1CCC[C@H]1Nc1nc(Cl)nc2c1ncn2[C@@H]1O[C@H](CO)[C@@H](O)[C@H]1O`, the pEC50 on Adenosine receptor A1 [2] is 6.92.

Take `O=P(O)(O)OC[C@H]1O[C@@H](n2cnc3c(NC4CCCC4)ncnc32)[C@H](O)[C@@H]1O`: the pEC50 on Adenosine receptor A1 [1] was 7.00.

Turning to `CCOC(=O)CNP(=O)(NCC(=O)OCC)OC[C@H]1O[C@@H](n2cnc3c(NC4CCCC4)nc(Cl)nc32)[C@H](O)[C@@H]1O`, at Adenosine receptor A1 [1], the pEC50 was 6.28.

Regarding `COP(=O)(OC)OC[C@H]1O[C@@H](n2cnc3c(NC4CCCC4)nc(Cl)nc32)[C@H](O)[C@@H]1O`, the Activity entry in the data set with Mus musculus [12] was “Dose-dependent effect”; in the data set on Mus musculus [7], “Non-toxic”; with Mus musculus [8], “Non-toxic”; in the data set on Mus musculus [9], “Dose-dependent effect”; in the data set on Mus musculus [10] it was “Non-toxic”; in the data set with Mus musculus [11], “Non-toxic”. Also, the Activity entry with Mus musculus [16] is “Dose-dependent effect”. In addition, the results for the pEC50 at Adenosine receptor A1 [3] and on Adenosine receptor A1 [1] were 6.28 and 5.85, respectively. The results for the Ratio Ki in the data set listed under Homo sapiens [13] and in the data set listed under Homo sapiens [5] were 130 and 12, respectively. For the same molecule, the values for the pKi at Adenosine receptor A2a, on Adenosine receptor A1 [6] and on Adenosine receptor A3 were 5.33, 7.44 and 6.35, respectively. Moreover, in data set [14], the inhibition stood at 7%. Further, the outcome in the data set on Mus musculus [15] was inactive.

Turning to `O=P(O)(O)OCC(Cc1ccccc1)Nc1nc(Cl)nc2c1ncn2[C@@H]1O[C@H](CO)[C@@H](O)[C@H]1O` (mixture of isomers), on Adenosine receptor A1 [1], the pEC50 was 5.82.
